In BindingDB's records for doi:10.1021/acsmedchemlett.6b00315 (Ghent University, 2017) one finds EC50 data, which are given here for 22 compounds.

The term EC50 denotes the midpoint of the concentration-response curve.

Test [1] is described as follows: Inhibition of methicillin-resistant Staphylococcus aureus Mu50 TRAP assessed as potentiation of vancomycin-induced antibiofilm activity cotreated with vancomycin for 24 hrs.
Test [2] can be described thus: Inhibition of methicillin-resistant Staphylococcus aureus Mu50 TRAP assessed as potentiation of vancomycin-induced antibiofilm activity treated for 4 hrs prior to vancomycin addition measured after 20 hrs.
Test [3] is described as follows: Inhibition of methicillin-resistant Staphylococcus aureus Mu50 TRAP assessed as potentiation of vancomycin-induced antibiofilm activity cotreated with vancomycin for 24 hrs. The source holds these as a separate data set.

`CC(=O)NC[C@]1(O)CO[C@H](CNC(=O)c2ccccc2Cl)[C@H]1O`: the 50% effective concentration (EC50) in test [1] came out at 3.55 µM; in test [2], 15.4 µM.

For the compound `O=C(NC[C@]1(O)CO[C@H](CN2C(=O)c3ccccc3C2=O)[C@H]1O)c1ccccc1Cl`, the EC50 was determined as 1.27 µM in test [3] and 0.26 µM in test [2].

As to `O=C(NC[C@H]1OC[C@@](O)(CN2C(=O)c3ccccc3C2=O)[C@@H]1O)c1ccc(-c2ccccc2)cc1`, the values for the EC50 in test [1] and in test [2] were 12.1 µM and 24.7 µM, respectively.

In the case of `O=C(NC[C@H]1OC[C@@](O)(CN2C(=O)c3ccccc3C2=O)[C@@H]1O)c1ccccc1Cl`, the 50% effective concentration (EC50) is 39 µM in test [1] and 2.63 µM in test [2].

Turning to `[N-]=[N+]=NC[C@]1(O)CO[C@H](CNC(=O)c2ccccc2Cl)[C@H]1O`, the EC50 in test [1] was determined as 2.34 µM; in test [2], 15.1 µM.

As to `O=C(NC[C@H]1OC[C@@](O)(CN2Cc3ccccc3C2=O)[C@@H]1O)c1ccccc1Cl`, the EC50 came to 20.9 µM in test [1] and 13.7 µM in test [2].

On to `O=C(NC[C@H]1OC[C@H](O)[C@@H]1O)c1ccccc1Cl`, for which the EC50 is 4.99 µM in test [3] and 11.4 µM in test [2].

For the compound `O=C(NC[C@H]1OC[C@@](O)(CNC(=O)c2ccc(-c3ccccc3)cc2)[C@@H]1O)c1ccnnc1`, the EC50 in test [3] is 45.4 µM; in test [2] it was 8.54 µM.

As for `O=C(OC[C@H]1OC(O)[C@@](O)(COC(=O)c2cc(O)c(O)c(O)c2)[C@@H]1O)c1cc(O)c(O)c(O)c1` (some centres undefined) [Hamamelitannin], the figures for the EC50 in test [1] and in test [2] were 165 µM and 146 µM, respectively.

In the case of `Cn1cncc1C(=O)NC[C@H]1OC[C@@](O)(CNC(=O)c2ccccc2)[C@@H]1O`, the EC50 is 58.2 µM in test [1] and 46.7 µM in test [2].

`O=C(NC[C@H]1OC[C@@](O)(CNC(=O)C2CCCCC2)[C@@H]1O)c1ccccc1Cl`: the EC50 is 34 µM in test [1] and 9.56 µM in test [2].

In the case of `O=C(NC[C@H]1OC[C@@](O)(CNC(=O)c2ccccc2Cl)[C@@H]1O)c1ccccc1`, the half-maximal effective concentration (EC50) in test [3] stood at 15 µM; in test [2], 5.58 µM.

Regarding `O=C(NC[C@]1(O)CO[C@H](CNC(=O)c2cnccc2Cl)[C@H]1O)c1ccccc1`, the EC50 in test [3] was greater than 250 µM; in test [2], 200 µM.

Consider `O=C(NC[C@H]1OC[C@@](O)(CNCc2ccccc2)[C@@H]1O)c1ccccc1Cl`, for which the EC50 in test [1] worked out at 8.42 µM; in test [2], 6.32 µM.

Turning to `O=C(NC[C@]1(O)CO[C@H](CNC(=O)c2ccccc2Cl)[C@H]1O)c1ccccc1`, the figures for the EC50 in test [3] and in test [2] were 7.98 µM and 0.39 µM, respectively.

For the compound `Cc1ccc(C(=O)NC[C@]2(O)CO[C@H](CNC(=O)c3ccccc3Cl)[C@H]2O)cc1`, the concentration for a half-maximal effect (EC50) in test [1] was determined as 41.9 µM; in test [2], 79.7 µM.

With `O=C(NC[C@]1(O)CO[C@H](CNC(=O)c2ccccc2Cl)[C@H]1O)c1ccoc1`, the EC50 in test [1] was found to be 76.7 µM; in test [2] it was 68.5 µM.

`O=C(NC[C@]1(O)CO[C@H](CNC(=O)c2ccccc2Cl)[C@H]1O)c1ccccc1F`: the values for the EC50 in test [3] and in test [2] were 62.2 µM and 48.6 µM, respectively.

Turning to `Cn1nccc1C(=O)NC[C@H]1OC[C@@](O)(CNC(=O)c2ccccc2)[C@@H]1O`, the EC50 in test [1] amounted to 23.5 µM; in test [2], 29.3 µM.

Regarding `O=C(NC[C@]1(O)CO[C@H](CN2C(=O)c3ccccc3C2=O)[C@H]1O)c1ccnnc1`, the EC50 was 11.4 µM in test [3] and 5.85 µM in test [2].

Consider `O=C(NC[C@]1(O)CO[C@H](CNC(=O)c2ccncc2Cl)[C@H]1O)c1ccccc1`, for which the concentration for a half-maximal effect (EC50) in test [3] was 232 µM; in test [2], greater than 250 µM.

On to `O=C(NC[C@]1(O)CO[C@H](CNC(=O)c2cccnc2Cl)[C@H]1O)c1ccccc1`, for which the EC50 in test [3] and in test [2] was greater than 250 µM each time.
